System: soybean meristem blocks
Assay: Agrobacterium-mediated soybean transformation (SULE selective marker) with screening by external (dropwise) application of tribenuron methyl; positive plants verified by TaqMan
Format: cell-based, Glycine max
Method: Screening of soybean meristem block: After the recovery period, the meristem block was transferred to 60 ml of a proliferation medium without a selective agent (tribenuron methyl) (B5 salt 3.1 g/L, B5 vitamin, MES 1 g/L, sucrose 30 g/L, 6-BAP 1 mg/L, agar 8 g/L, cephalosporin 150 mg/L, glutamic acid 100 mg/L, aspartic acid 100 mg/L, pH 5.6), so that the soybean meristem block grew rapidly, and the screening and culturing was carried out for 5-9 days, preferably 7 days, under the conditions of a temperature of 24° C. and a photoperiod (light/dark) of 16:8. After the above soybean meristem block was proliferated for 5-9 days, tribenuron methyl herbicide (95% tribenuron methyl wettable powder) was externally applied in concentration of 1, 3, 5 and 7 μg to per ml of the proliferation medium, respectively, in which the diluted tribenuron methyl herbicide solution was added to the proliferation medium to cause selective growth of the transformed cells, and the screening and culturing was carried out at a temperature of 24° C. and a photoperiod (light/dark) of 16:8 for 2 weeks.
Regeneration of plant from resistant soybean tissue block: The resistant tissue blocks after the above screening treatment with four concentrations of tribenuron methyl were separately taken out from the proliferation medium containing tribenuron methyl, the dead tissues and cotyledons attached thereto were removed, the resistant tissue blocks were transferred to (obliquely inserted into) a B5 differentiation medium without selective agent (tribenuron methyl) (B5 salt 3.1 g/L, B5 vitamin, MES 1 g/L, sucrose 30 g/L, ZT 1 mg/L, agar 8 g/L, cephalosporin 150 mg/L, glutamic acid 50 mg/L, aspartic acid 50 mg/L, gibberellin 1 mg/L, auxin 1 mg/L, pH 5.6), and cultured for differentiation at a temperature of 24° C. and a photoperiod (light/dark) of 16:8 for 14-20 days, preferably 18 days. After the differentiation and growth of the above screened four resistant soybean tissue blocks for 14-20 days, […] of tribenuron methyl herbicide (95% tribenuron methyl wettable powder) was externally applied to per ml of the B5 differentiation medium, in which the diluted solution of tribenuron methyl herbicide was added dropwise to the B5 differentiation medium by a pipette, and the screening and culturing was continued at a temperature of 24° C. and a photoperiod (light/dark) of 16:8 until the resistant tissue blocks (transformed cells) regenerated into plants or the regenerated plants could survive.
In the present example, in the screening step of the above soybean meristem blocks and the plant regenerating step of the resistant soybean tissue blocks, the tribenuron methyl herbicide (95% tribenuron methyl wettable powder) was applied to per ml of the proliferation medium or the B5 differentiation medium, and the concentration examples of the diluted tribenuron methyl herbicide solution added dropwise to the proliferation medium or the B5 differentiation medium were shown in Table 1. The proliferated soybean meristem blocks were screened for tolerance to tribenuron methyl herbicide, and the specific information of the 12 treatments was shown in Table 2, and the screening results for each treatment were shown in Table 3, in which each treatment was repeated for 3 times.
The seedlings differentiated from the above 12 treatments were transferred to a B5 rooting medium (B5 salt 3.1 g/L, B5 vitamin, MES 1 g/L, sucrose 30 g/L, agar 8 g/L, cephalosporin 150 mg/L, indole-3-butyric acid (IBA) 1 mg/L, pH 5.6), cultured at 25° C. to a height of about 10 cm, and moved to a greenhouse to grow until fructification. The transgenic plants could be obtained by culturing at 26° C. for 16 hours and then at 20° C. for 8 hours per day in a greenhouse. […]

[1] = Treatment 1: 1 μg/ml proliferation medium, 3 μg/ml B5 differentiation medium
[2] = Treatment 1: 1 μg/ml proliferation medium, 3 μg/ml B5 differentiation medium, 50 initially germinated soybeans
[3] = Treatment 2: 1 μg/ml proliferation medium, 5 μg/ml B5 differentiation medium
[4] = Treatment 2: 1 μg/ml proliferation medium, 5 μg/ml B5 differentiation medium, 55 initially germinated soybeans
[5] = Treatment 3: 1 μg/ml proliferation medium, 7 μg/ml B5 differentiation medium
[6] = Treatment 3: 1 μg/ml proliferation medium, 7 μg/ml B5 differentiation medium, 75 initially germinated soybeans
[7] = Treatment 4: 3 μg/ml proliferation medium, 3 μg/ml B5 differentiation medium
[8] = Treatment 4: 3 μg/ml proliferation medium, 3 μg/ml B5 differentiation medium, 55 initially germinated soybeans
[9] = Treatment 5: 3 μg/ml proliferation medium, 5 μg/ml B5 differentiation medium
[10] = Treatment 5: 3 μg/ml proliferation medium, 5 μg/ml B5 differentiation medium, 60 initially germinated soybeans
[11] = Treatment 6: 3 μg/ml proliferation medium, 7 μg/ml B5 differentiation medium, 45 initially germinated soybeans
[12] = Treatment 7: 5 μg/ml proliferation medium, 3 μg/ml B5 differentiation medium
[13] = Treatment 7: 5 μg/ml proliferation medium, 3 μg/ml B5 differentiation medium, 50 initially germinated soybeans
[14] = Treatment 8: 5 μg/ml proliferation medium, 5 μg/ml B5 differentiation medium
[15] = Treatment 8: 5 μg/ml proliferation medium, 5 μg/ml B5 differentiation medium, 70 initially germinated soybeans
[16] = Treatment 9: 5 μg/ml proliferation medium, 7 μg/ml B5 differentiation medium
[17] = Treatment 9: 5 μg/ml proliferation medium, 7 μg/ml B5 differentiation medium, 43 initially germinated soybeans
[18] = Treatment 10: 7 μg/ml proliferation medium, 3 μg/ml B5 differentiation medium
[19] = Treatment 10: 7 μg/ml proliferation medium, 3 μg/ml B5 differentiation medium, 80 initially germinated soybeans
[20] = Treatment 11: 7 μg/ml proliferation medium, 5 μg/ml B5 differentiation medium
[21] = Treatment 11: 7 μg/ml proliferation medium, 5 μg/ml B5 differentiation medium, 75 initially germinated soybeans
[22] = Treatment 12: 7 μg/ml proliferation medium, 7 μg/ml B5 differentiation medium
[23] = Treatment 12: 7 μg/ml proliferation medium, 7 μg/ml B5 differentiation medium, 80 initially germinated soybeans

## COC(=O)c1ccccc1S(=O)(=O)NC(=O)N(C)c1nc(C)nc(OC)n1 [tribenuron methyl]
[1]
  Positive plant rate: 22.2%
  Transformation efficiency: 12.0%
[2]
  Number of positive plants: 6 plant
  Number of seedlings: 27 plant
[3]
  Positive plant rate: 25.0%
  Transformation efficiency: 10.9%
[4]
  Number of positive plants: 6 plant
  Number of seedlings: 24 plant
[5]
  Positive plant rate: 50.0%
  Transformation efficiency: 6.7%
[6]
  Number of positive plants: 5 plant
  Number of seedlings: 10 plant
[7]
  Positive plant rate: 20.0%
  Transformation efficiency: 9.1%
[8]
  Number of positive plants: 5 plant
  Number of seedlings: 25 plant
[9]
  Positive plant rate: 21.4%
  Transformation efficiency: 10.0%
[10]
  Number of positive plants: 6 plant
  Number of seedlings: 28 plant
Treatment 6: 3 μg/ml proliferation medium, 7 μg/ml B5 differentiation medium
  Positive plant rate: 47.8%
[11]
  Number of positive plants: 11 plant
  Number of seedlings: 23 plant
[12]
  Positive plant rate: 36.8%
  Transformation efficiency: 14.0%
[13]
  Number of positive plants: 7 plant
  Number of seedlings: 19 plant
[14]
  Positive plant rate: 25.0%
  Transformation efficiency: 5.7%
[15]
  Number of positive plants: 4 plant
  Number of seedlings: 16 plant
[16]
  Positive plant rate: 62.5%
  Transformation efficiency: 11.6%
[17]
  Number of positive plants: 5 plant
  Number of seedlings: 8 plant
[18]
  Positive plant rate: 60.0%
  Transformation efficiency: 11.3%
[19]
  Number of positive plants: 9 plant
  Number of seedlings: 15 plant
[20]
  Positive plant rate: 77.7%
  Transformation efficiency: 9.3%
[21]
  Number of positive plants: 7 plant
  Number of seedlings: 9 plant
[22]
  Positive plant rate: 80.0%
  Transformation efficiency: 5.0%
[23]
  Number of positive plants: 4 plant
  Number of seedlings: 5 plant
